test: In vitro antagonist activity against Thrombin induced gel-filtered platelet (GFP) aggregation at 0.15 nM.

SMILES	IC50 [µM]
NCC[C@H](NC(=O)[C@H](Cc1ccc(F)c(F)c1)NC(=O)Nc1ccc2c(CN3CCCC3)nn(Cc3c(Cl)cccc3Cl)c2c1)C(=O)NCc1ccccc1 [4-Amino-N-benzyl-2-[2-{3-[1-(2,6-dichloro-benzyl)-3-pyrrolidin-1-ylmethyl-1H-indazol-6-yl]-ureido}-3-(3,4-difluoro-phenyl)-propionylamino]-butyramide]	0.37
N=C(N)NCCC[C@H](NC(=O)[C@H](Cc1ccc(F)c(F)c1)NC(=O)Nc1ccc2c(CN3CCCC3)cn(Cc3c(Cl)cccc3Cl)c2c1)C(=O)NCc1ccncc1 [2-[2-{3-[1-(2,6-Dichloro-benzyl)-3-pyrrolidin-1-ylmethyl-1H-indol-6-yl]-ureido}-3-(3,4-difluoro-phenyl)-propionylamino]-5-guanidino-pentanoic acid (pyridin-4-ylmethyl)-amide]	1.06
COc1ccc(C[C@H](NC(=O)Nc2ccc3c(CNC4CCCC4)cn(Cc4ccc(F)cc4)c3c2)C(=O)N[C@@H](CCCNC(=N)N)C(=O)NCc2ccccc2)cc1 [2-[2-{3-[3-Cyclopentylaminomethyl-1-(4-fluoro-benzyl)-1H-indol-6-yl]-ureido}-3-(4-methoxy-phenyl)-propionylamino]-5-guanidino-pentanoic acid benzylamide]	17.8
COc1ccc(C[C@H](NC(=O)Nc2ccc3c(CN4CCCC4)cn(Cc4ccc(OC(F)(F)F)cc4)c3c2)C(=O)N[C@@H](CCCNC(=N)N)C(=O)NCc2ccccc2)cc1 [5-Guanidino-2-(3-(4-methoxy-phenyl)-2-{3-[3-pyrrolidin-1-ylmethyl-1-(4-trifluoromethoxy-benzyl)-1H-indol-6-yl]-ureido}-propionylamino)-pentanoic acid benzylamide]	18.2
COc1ccc(C[C@H](NC(=O)Nc2ccc3c(CN4CCCC4)cn(Cc4ccc(F)cc4)c3c2)C(=O)N[C@@H](CCCNC(=N)N)C(=O)NCc2ccccc2)cc1 [2-[2-{3-[1-(4-Fluoro-benzyl)-3-pyrrolidin-1-ylmethyl-1H-indol-6-yl]-ureido}-3-(4-methoxy-phenyl)-propionylamino]-5-guanidino-pentanoic acid benzylamide]	2.32
N=C(N)NCCC[C@H](NC(=O)[C@H](Cc1ccc(F)c(F)c1)NC(=O)Nc1ccc2c(CN3CCCC3)cn(Cc3c(Cl)cccc3Cl)c2c1)C(=O)NCc1ccccc1 [(S)-2-[(S)-2-{3-[1-(2,6-Dichloro-benzyl)-3-pyrrolidin-1-ylmethyl-1H-indol-6-yl]-ureido}-3-(3,4-difluoro-phenyl)-propionylamino]-5-guanidino-pentanoic acid benzylamide]	0.57
COc1ccc(C[C@H](NC(=O)Nc2ccc3c(CN4CCCC4)cn(Cc4c(Cl)cccc4Cl)c3c2)C(=O)N[C@@H](CCCN=C(N)N)C(=O)NCc2ccccc2)cc1 [RWJ-54003]	0.9
